Key:
[1] = tested on: HUP-T3 pancreatic cancer cells; test: Cellular proliferation of HUP-T3 pancreatic cancer cells in vitro; type: cell-based; details: treatment on day 1 for 5 h, measured after 7 days
Protocol: (§1) The aim of the study was to determine the effect of AP12009 (trabedersen) treatment in combination with 5-Fluorouracil (5-FU) on TGFβ2 secretion and on cellular proliferation of HUP-T3 pancreatic cancer cells and WiDr colon cancer cells in vitro.
(§2) 10 μM of AP12009 as monotherapy decreased cell proliferation (53% proliferation of untreated control) and TGFβ2 expression (42% of untreated control) in HUP-T3 cells.

TGFβ2 [2] = test: TGFβ2 secretion/expression in HUP-T3 pancreatic cancer cells; type: cell-based; details: ca.
Protocol: as §1, §2

WiDr colon cancer cells = test: Cellular proliferation of WiDr colon cancer cells in vitro; type: cell-based; details: treatment on day 1 for 5 h only, ca.
Text: as §1

TGFβ2 [3] = test: TGFβ2 secretion/expression in WiDr colon cancer cells; type: cell-based; details: ca.
Text: as §1

[4] = tested on: C8161 human melanoma cells; test: C8161 melanoma xenograft model: tumor growth and survival; details: for Tumor growth suppressed relative to control group 1: day 42
Protocol: Sixty female athymic nude mice were intradermally inoculated with C8161 human melanoma cells and randomized into six groups of 10 mice. Three groups received monotherapy treatment with either OT-101 (trabedersen) (16 mg/kg) (Group 2) or Dacarbazine (DTIC; 1 or 10 mg/kg; Groups 3, 4). Two groups received combination therapy with OT-101/DTIC at 16/1 mg/kg or 16/10 mg/kg (Groups 5 and 6). Vehicle (0.9% saline, Groups 1, 3, and 4) and OT-101 were administered 3 times/week via subcutaneous injection. Vehicle (0.9% saline, Groups 1 and 2) and DTIC (1 or 10 mg/kg) were administered via intraperitoneal injection four times/week. All OT-101/Trabedersen treatments commenced at day 0 of the study and all DTIC treatments commenced on day 14. Mice were monitored for adverse effects, body weight and tumor size three times weekly. The tumor, lungs, liver and kidneys were excised from all mice at termination and weighed.

Structure (SMILES)	5-FU concentrations that dose-dependently reduced cell proliferation [1]	5-FU concentrations at which TGFβ2 was suppressed (TGFβ2 [2])	5-FU concentrations that concentration-dependently reduced cell proliferation (WiDr colon cancer cells)	5-FU concentrations at which TGFβ2 was suppressed (TGFβ2 [3])	Tumor growth suppressed relative to control group 1 ([4]; group 3: DTIC 1 mg/kg i.p. four times/week from day 14)	Tumor growth suppressed relative to control group 1 ([4]; group 4: DTIC 10 mg/kg i.p. four times/week from day 14)	median survival ([4]; group 3: DTIC 1 mg/kg)	median survival ([4]; group 4: DTIC 10 mg/kg)
O=c1[nH]cc(F)c(=O)[nH]1 [5-FU, 5-Fluorouracil, reference compound]	> 10 µM	> 75 µM	> 38 µM	> 75 µM	–	–	–	–
CN(C)/N=N/c1[nH]cnc1C(N)=O [DTIC, Dacarbazine]	–	–	–	–	−2%	78%	47 days	60 days

From US20170226518A1, “COMPOSITIONS AND METHODS FOR TREATING CANCER” (Autotelic LLC, priority 2016, published 2017)
